Reference: BigSolDB 2.1

CO/C=C(/C(=O)OC)c1ccccc1Oc1cc(Oc2ccccc2C#N)ncn1
solubility (mole fraction)
Conditions | 288.15 K | 293.15 K | 298.15 K | 303.15 K | 308.15 K | 313.15 K | 318.15 K | 323.15 K | 328.15 K
in ethanol | 0.000747 | 0.000923 | 0.00118 | 0.00171 | 0.0022 | 0.00296 | 0.00422 | 0.0056 | 0.00786
in ethyl acetate | 0.0246 | 0.0283 | 0.0319 | 0.0415 | 0.0473 | 0.059 | 0.0756 | 0.0879 | 0.108
in isobutanol | 0.000441 | 0.000628 | 0.00084 | 0.00129 | 0.0017 | 0.00231 | 0.00324 | 0.00441 | 0.00571
in isopropanol | 0.000339 | 0.000476 | 0.000649 | 0.00102 | 0.00134 | 0.00183 | 0.0026 | 0.00358 | 0.00452
in methanol | 0.00135 | 0.00165 | 0.00205 | 0.0027 | 0.00368 | 0.00497 | 0.00683 | 0.0096 | 0.0144
in n-butanol | 0.000514 | 0.000733 | 0.000955 | 0.00149 | 0.00185 | 0.00246 | 0.0034 | 0.00476 | 0.00635
in n-propanol | 0.000654 | 0.000829 | 0.00108 | 0.00162 | 0.00207 | 0.00277 | 0.00387 | 0.00527 | 0.0072
